Values quoted from earlier work, collected in PMC3726058 (European journal of pharmacology, 2010).

How the values were obtained:
σ1 versus σ2 = settings: rat brain membranes; ref Klouz et al., 2003; Matsuno et al., 1996
σ1 over the σ2 subtype = settings: ref Bowen, 1993
adrenergic α2 = settings: read-out: Ki α2; ref Yous et al., 2005
histamine H1 = settings: read-out: Ki H1; ref Yous et al., 2005

COc1ccc(CN2CCN(Cc3ccccc3)CC2)c(O)c1OC [BHDP]
affinity for σ1 versus σ2 (σ1 versus σ2): approximately 100 fold

CC(C)=CCN1CC[C@]2(C)c3cc(O)ccc3C[C@H]1[C@H]2C [[^3H](+)-Pentazocine]
preference for σ1 over σ2 subtype (σ1 over the σ2 subtype): > 700 fold

CCCc1ccc2c(c1)sc(=O)n2CCN1CCCCCC1 [SN56, 3-(2-(azepan-1-yl)ethyl)-6-propylbenzo[d]thiazol-2(3H)-one]
Ki (adrenergic α2): 205 nM | Ki (histamine H1): 311 nM

COc1ccc(CCN2CCN(CCCc3ccccc3)CC2)cc1OC [SA4503]
affinity for σ1 versus σ2 (σ1 versus σ2): approximately 100 fold
